ChEMBL document CHEMBL4385638, “Synthesis and biological evaluation of 1-alkylaminomethyl-1,1-bisphosphonic acids against Trypanosoma cruzi and Toxoplasma gondii” (Bioorg Med Chem, 2019)

Tests used:
Toxoplasma gondii [1] = test: Antiparasitic activity against Toxoplasma gondii tachyzoites infected in human TerT cells assessed as decrease in parasite viability by red fluorescent protein based fluorescence method; assay type: functional; conditions: read-out: ED50 (the source's name)
Trypanosoma cruzi = test: Antiparasitic activity against Trypanosoma cruzi amastigote infected in African green monkey Vero cells decrease in parasite viability measured at day 3 of post infection by red fluorescent protein based fluorescence method; assay type: functional; conditions: 72 h, read-out: ED50 (the source's name)
[2] = target: T1, Farnesyl diphosphate synthase (Trypanosoma cruzi, UniProt Q8WS26); test: Inhibition of Trypanosoma cruzi FPPS using DMAPP as substrate incubated for 30 mins measured by scintillation counting
T1 sequence (Q8WS26 whole entry): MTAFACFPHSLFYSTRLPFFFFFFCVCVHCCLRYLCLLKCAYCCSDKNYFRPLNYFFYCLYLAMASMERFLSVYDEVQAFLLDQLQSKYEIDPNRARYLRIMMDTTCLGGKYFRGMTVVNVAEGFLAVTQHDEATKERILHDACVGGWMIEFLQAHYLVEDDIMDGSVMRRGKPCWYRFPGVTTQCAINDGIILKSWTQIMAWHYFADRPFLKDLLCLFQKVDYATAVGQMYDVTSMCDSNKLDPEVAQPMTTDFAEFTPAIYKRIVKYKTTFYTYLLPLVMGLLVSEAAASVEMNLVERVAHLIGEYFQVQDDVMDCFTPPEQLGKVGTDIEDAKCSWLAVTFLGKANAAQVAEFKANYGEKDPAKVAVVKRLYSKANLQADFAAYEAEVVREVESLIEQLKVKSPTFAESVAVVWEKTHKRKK

[3] = target: T2, Farnesyl diphosphate synthase (Toxoplasma gondii, UniProt Q197X6); test: Inhibition of Toxoplasma gondii FPPS using DMAPP as substrate incubated for 30 mins measured by scintillation counting
T2 sequence (Q197X6 whole entry): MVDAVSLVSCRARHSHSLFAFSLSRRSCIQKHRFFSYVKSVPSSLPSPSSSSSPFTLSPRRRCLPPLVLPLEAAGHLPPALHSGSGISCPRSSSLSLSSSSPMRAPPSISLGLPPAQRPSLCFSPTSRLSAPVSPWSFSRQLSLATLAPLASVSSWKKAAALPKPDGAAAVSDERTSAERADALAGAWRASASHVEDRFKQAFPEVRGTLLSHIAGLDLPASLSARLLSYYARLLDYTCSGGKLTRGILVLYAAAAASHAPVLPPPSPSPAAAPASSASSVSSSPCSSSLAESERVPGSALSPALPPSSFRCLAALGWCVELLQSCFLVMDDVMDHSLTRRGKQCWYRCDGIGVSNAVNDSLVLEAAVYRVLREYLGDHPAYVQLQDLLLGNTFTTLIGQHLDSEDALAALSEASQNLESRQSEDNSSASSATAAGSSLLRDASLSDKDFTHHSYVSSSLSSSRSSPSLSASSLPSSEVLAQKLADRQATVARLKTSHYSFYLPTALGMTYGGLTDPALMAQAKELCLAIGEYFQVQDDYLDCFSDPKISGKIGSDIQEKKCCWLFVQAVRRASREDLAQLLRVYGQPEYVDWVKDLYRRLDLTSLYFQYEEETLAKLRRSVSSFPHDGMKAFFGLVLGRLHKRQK

Toxoplasma gondii [4] = test: Antiparasitic activity against Toxoplasma gondii RH tachyzoites infected in ip dosed Webster mouse assessed as increase in survival rate administered daily starting on day 6 post infection for 10 days and measured 30 days post infection (reference value: 9 to 12 days); assay type: functional
[5] = Cytotoxicity against African green monkey Vero cells assessed as decrease in cell viability after 3 to 4 days by alamar blue assay; assay type: cell-based; conditions: chlorocebus sabaeus, read-out: ED50 (the source's name)
Vero [6] = test: Cytotoxicity against African green monkey Vero cells assessed as decrease in cell viability at 5 to 10 uM after 3 to 4 days by alamar blue assay; assay type: cell-based; conditions: chlorocebus sabaeus
Vero [7] = test: Cytotoxicity against African green monkey Vero cells assessed as decrease in cell viability at 2.5 uM after 3 to 4 days by alamar blue assay; assay type: cell-based; conditions: chlorocebus sabaeus

Compound	EC50 (Toxoplasma gondii [1])	EC50 (Trypanosoma cruzi)	IC50 [2]	IC50 [3]	other results
CCCCCCCCCCCCNCC(P(=O)(O)O)P(=O)(O)O	6.23 µM				
CCCCCCCC[S+](C)CC(P(=O)(O)O)P(=O)(O)O (centres undefined)	7 µM				
CCCCCCCSCC(P(=O)(O)O)P(=O)(O)O	0.97 µM	> 20 µM			
CCCCCCCCCCSCC(P(=O)(O)O)P(=O)(O)O	1.8 µM				
CCCCCCNCC(P(=O)(O)O)P(=O)(O)O	9.4 µM				
CCCCCCCNCC(P(=O)(O)O)P(=O)(O)O	> 50 µM	10 µM			
CCCCCCCCC(F)(P(=O)(O)O)P(=O)(O)O	2.67 µM	> 10 µM	> 1 µM		
CCCCCCCCCC(F)(P(=O)(O)O)P(=O)(O)O	> 10 µM	> 10 µM	> 1 µM		
CCCCCCCCNCC(O)(P(=O)(O)O)P(=O)(O)O	2 µM	> 10 µM	> 10 µM		
O=P(O)(O)C(CNC1CCCC1)P(=O)(O)O	> 20 µM				
CCCCCCCCCCS(=O)(=O)CC(P(=O)(O)O)P(=O)(O)O	0.11 µM			0.27 µM	ED50 (Toxoplasma gondii [4]): 0.02 mg/kg
O=P(O)(O)C(CNC1CCCCCC1)P(=O)(O)O	> 20 µM				
CCCCCCNCC(F)(P(=O)(O)O)P(=O)(O)O	> 10 µM	> 10 µM	0.915 µM	0.131 µM	
CCCCCCCCCCCCS(=O)(=O)CC(P(=O)(O)O)P(=O)(O)O	0.93 µM				
CCCCCCCCCNCC(F)(P(=O)(O)O)P(=O)(O)O	2.24 µM		0.034 µM	0.051 µM	CC50 [5]: 15 µM
CCCCCCCNCC(F)(P(=O)(O)O)P(=O)(O)O	> 10 µM	> 10 µM	0.071 µM	0.088 µM	
CC1CCC(NCC(P(=O)(O)O)P(=O)(O)O)CC1 (centres undefined)	> 20 µM				
CCCCCCCCNCC(F)(P(=O)(O)O)P(=O)(O)O	4.01 µM	> 10 µM	0.085 µM	0.079 µM	CC50 [5]: 162 µM
CCCCCCCCCCCS(=O)(=O)CC(P(=O)(O)O)P(=O)(O)O	0.38 µM				
CCCCCCCCCCNCC(F)(P(=O)(O)O)P(=O)(O)O	2.26 µM		0.136 µM	0.08 µM	CC50 [5]: 20 µM
CCCCCCCCCCCSCC(P(=O)(O)O)P(=O)(O)O	0.54 µM				
CCCNCC(F)(P(=O)(O)O)P(=O)(O)O		> 10 µM	0.06 µM	0.245 µM	
CCCCCNCC(F)(P(=O)(O)O)P(=O)(O)O	> 10 µM	> 10 µM	0.611 µM	0.299 µM	
CCCCCCCCCCCNC(P(=O)(O)O)P(=O)(O)O					CC50 [5]: 10 µM; Activity (Vero [6]): Toxic; Activity (Vero [7]): Non-Toxic
CCCCCCCCCCC[S+]([O-])CC(P(=O)(O)O)P(=O)(O)O (centres undefined)	0.53 µM				
CCCCNCC(F)(P(=O)(O)O)P(=O)(O)O	> 10 µM	> 10 µM	0.173 µM	0.286 µM	CC50 [5]: > 200 µM
O=C(Cn1ccnc1[N+](=O)[O-])NCc1ccccc1 [BENZNIDAZOLE]		2.58 µM			
